“Also recorded” adds a separate entry of the source.
Experiments:
His6-GlgXDLVR(212-215) = test: nanoDSF thermal shift assay, RLVD212-215 swap mutant; type: binding, Streptomyces venezuelae; details: His6-GlgXDLVR(212-215) mutant
Experimental: Arginine and aspartic acid arranged in an RxxD motif are often found as c-di-GMP binding signatures in effector proteins[28],[34]. […] To determine if either of these motifs are involved in c-di-GMP binding, we swapped the arginine and aspartic acid residues in the two motifs and purified His6-GlgXDETR(49-52) and His6-GlgXDLVR(212-215).
For label-free thermal shift assay experiments, 10 μM purified protein in 25 mM Tris pH 8, 150 mM NaCl, 2.5% (v/v) glycerol, and 5 mM MgCl2 was incubated without or with (1 mM) of nonlabeled c-di-GMP or c-di-AMP, respectively, at rt for 10 min. Reactions were subsequently analyzed in a Tycho NT.6 (NanoTemper Technologies) device with a 30 K/min thermal ramp and the internal fluorescence at 330 and 350 nm was recorded. Data analysis and calculation of derivatives was done using the internal evaluation features of the Tycho instrument.
217 Supplementary Fig. 5: NanoDSF assays with mutagenized His6-GlgX variants. (a) Swap of the
219 This was confirmed by DRaCALA, right. For DRaCALA assays, 15 µg of purified E. coli His6-GlgX
220 or His6-Vnz25270, respectively, were mixed with 0.5 µl of [32P]-c-di-GMP (Hartmann Analytic
221 GmbH, Braunschweig) in binding buffer (25 mM Tris pH 8.0, 150 mM NaCl, 2.5% (v/v) glycerol
222 and 5 mM MgCl2). […]
223 air dried for 10 min and analyzed by phosphorimaging. […]

His6-GlgX = test: Bicinchoninic acid (BCA) reducing-end enzyme assay, wild-type GlgX; type: biochemical, Streptomyces venezuelae; details: for stimulation of GlgX hydrolysis of substrate: 1 µM His6-GlgX, 50 µM c-di-GMP
Description: Glycogen debranching enzymes hydrolyze α-(1→6)-linked glucan branches, producing malto-oligosaccharides with reducing ends[7]. The bicinchoninic acid (BCA) assay allows accurate photometric determination of reducing ends from oligosaccharides and is based on the reduction of Cu^2+ to Cu^+. A purple copper bicinchoninate complex with an absorbance maximum at 562 nm forms from Cu^+ and bicinchoninate. […] In addition, we tested the effect of c-di-GMP on GlgX activity by using polysaccharides with different degrees of α-(1→6)-linked glucans as a substrate (Fig. 2b). While glycogen contains α-(1→6)-linked glucan branches every 8–10 residue, amylose is essentially an unbranched chain of α−1,4-linked glucose subunits. Amylopectin is composed of α−1,4-linked glucose units with α-(1→6)-linkages at intervals of ∼20 units. Pullulan is a polysaccharide polymer consisting of maltotriose units in which the three glucose units are connected by α−1,4-glycosidic bonds. Consecutive maltotriose units are linked by a α−1,6-glycosidic bond.
(§1) Fig. 2 c-di-GMP stimulates glycogen breakdown activity of GlgX in vitro. a Bicinchoninic acid (BCA) in vitro enzyme assay. The purple copper bicinchoninate complex indicating GlgX-mediated generation of reducing ends in glycogen was quantified by photometric measurements at 562 nm. A562 values were converted into reducing ends [µM glucose equivalents] based on D-glucose as a standard. Reactions contained 0.05% (w/v) glycogen from rabbit, 1 µM GlgX and increasing concentrations of c-di-GMP (0–100 µM). Source data are provided as a Source data file. b BCA assay containing 0.05% of either glycogen from rabbit, pullulan, amylopectin from maize or amylose from potato as substrates. Where appropriate, 1 µM GlgX or 50 µM c-di-GMP were added to the reaction samples. Source data are provided as a Source data file. c BCA assay as in a with or without c-di-GMP (50 µM), 0.05% glycogen from rabbit (S) and 1 µM Vnz25270, GlgX, the active site mutants GlgXD342A, GlgXE378A, GlgXD342A+E378A, or the c-di-GMP-binding mutant variant GlgXDETR49-52 as indicated. The experiment was performed three times, each time with two technical replicates. The data points represent the mean ± SD of six data points. Source data are provided as a Source data file.
Hydrolysis of carbohydrates was assessed in vitro by measuring the accumulation of reducing sugar ends using the BCA assay[42] and D-glucose as a standard for calibration (Supplementary Fig. 11). Purified enzyme was diluted to […] in 20 mM (N-2-hydroxyethylpiperazine-N′−2-ethanesulfonic acid) HEPES (pH 7.5; ionic strength, 160 mM [adjusted with NaCl]) containing 10 mM MgCl2 and […] c-di-GMP (BioLog). Samples were incubated at rt for 5 min and reactions were initiated by the addition of 0.05% of the relevant carbohydrate provided by Sigma-Aldrich: glycogen from rabbit (cat. no G8876); amylose from potato (cat. no A0512); amylopectin from maize (cat. no. 10120); and pullulan (P4516). The mixture was incubated at 37 °C in a heat block for 1 h. Next, an equal volume of BCA reagent solution (250 mM Na2CO3; 144 mM NaHCO3; 2.5 mM sodium bicinconinic acid (Sigma); 6 mM L-serine (Roth); 2.5 mM CuSO4 x 5 H2O (Roth)) was added, reactions were vortexed vigorously and incubated at 80 °C in a heat block for 30 min. Assay mixtures were then cooled to rt. 125 μl sample aliquots were transferred in duplicates to a 96 well plate and the absorbance at 562 nm was measured using a plate reader.

His6-GlgXD342A = test: BCA reducing-end enzyme assay, GlgXD342A; type: biochemical, Streptomyces venezuelae; details: 50 µM c-di-GMP, 0.05% glycogen from rabbit, 1 µM enzyme
Experimental: as §1, with “The experiment was performed three times, each time with two technical replicates. The data points represent the mean ± SD of six data points. Source data are provided as a Source data file.” left out
(§2) Hydrolysis of carbohydrates was assessed in vitro by measuring the accumulation of reducing sugar ends using the BCA assay[42] and D-glucose as a standard for calibration (Supplementary Fig. 11). […] 125 μl sample aliquots were transferred in duplicates to a 96 well plate and the absorbance at 562 nm was measured using a plate reader.

His6-GlgXDETR49-52 = test: BCA reducing-end enzyme assay, GlgXDETR49-52; type: biochemical, Streptomyces venezuelae; details: 50 µM c-di-GMP, 0.05% glycogen from rabbit, 1 µM enzyme
Experimental: as §1, with “The experiment was performed three times, each time with two technical replicates. The data points represent the mean ± SD of six data points. Source data are provided as a Source data file.” left out
as §2

[RsiG + WhiG] = target: [RsiG + WhiG]; design: method as in PMID 25171413, PMID 31810759; details: cited from earlier work

For `Nc1nc2c(ncn2[C@@H]2O[C@@H]3CO[P@](=O)(O)O[C@H]4[C@@H](O)[C@H](n5cnc6c(=O)[nH]c(N)nc65)O[C@@H]4CO[P@](=O)(O)O[C@H]3[C@H]2O)c(=O)[nH]1` [c-di-GMP, bis-(3′−5′)-cyclic diguanosine monophosphate], the “shift in melting/unfolding temperature by c-di-GMP” value (His6-GlgXDLVR(212-215)) was “still allows ligand binding; also recorded: still caused a shift”, the “c-di-GMP concentration with saturating enzymatic activity” value (His6-GlgX; 0.05% glycogen from rabbit, 1 µM GlgX, c-di-GMP 3.125–100 µM) was 50 µM and the “stimulation of GlgX hydrolysis of substrate” value (“stimulation … of substrate” below) (His6-GlgX; substrate 0.05% amylopectin) was “stimulates”. For the same compound, the “stimulation … of substrate” value (His6-GlgX; substrate 0.05% amylose) was “no stimulation”, the “stimulation … of substrate” value (His6-GlgX; substrate 0.05% glycogen) was “stimulates” and the “stimulation … of substrate” value (His6-GlgX; substrate 0.05% pullulan) was “stimulates”. The “stimulation of enzyme activity by c-di-GMP” value (His6-GlgXD342A) was “could not be stimulated”, the “effect of c-di-GMP on hydrolytic activity” value (His6-GlgXDETR49-52) was “remained at basal levels” and the Kd ([RsiG + WhiG]) was 0.39 ± 0.05 µM.
